Assays:
Plasmodium falciparum [1] = assay: NOVARTIS: Inhibition of Plasmodium falciparum 3D7 (drug-susceptible) proliferation in erythrocyte-based infection assay; assay type: functional, organism-based; conditions: Plasmodium falciparum, 3D7
[2] = NOVARTIS: Cytotoxicity against human hepatocellular carcinoma cell line (Huh7); assay type: toxicity, cell-based, Huh-7; conditions: Huh7 cells (hepatocellular carcinoma cell line)
Plasmodium falciparum [3] = assay: NOVARTIS: Inhibition of Plasmodium falciparum W2 (drug-resistant) proliferation in erythrocyte-based infection assay; assay type: functional, organism-based; conditions: Plasmodium falciparum, W2; read-out: EC50

| SMILES | EC50 (Plasmodium falciparum [1]) [µM] | CC50 [2] [µM] | EC50 (Plasmodium falciparum [3]) [µM] |
| --- | --- | --- | --- |
| COc1ccc(/C=C2/SC(=Nc3ccccc3)NC2=O)cc1 | 0.292 | > 100 | 0.332 |
| c1ccc(Nc2nc(-c3ccccn3)cs2)nc1 | 0.114 | 18.6 | 0.0585 |
| CCC(c1nc2ccccc2c(=O)n1-c1ccccc1OC)N(CCc1ccccc1)C(=O)c1cccc(OC)c1 (configuration not stated) | 1.08 | > 10 | 0.0311 |
| CCOC(=O)c1c(CNc2ccncc2)n(C)c2cc(Br)c(OC(C)=O)cc12 | 0.257 | > 100 | 0.31 |
| COc1cc(OC)c(NC(=O)C2c3ccccc3C(=O)N(C)C2c2cccs2)cc1Cl (configuration not stated) | 0.32 | > 100 | 0.31 |
| COc1ccc(C2C(C(=O)Nc3cc(Cl)c(OC)cc3OC)c3ccccc3C(=O)N2C)cc1 (configuration not stated) | 0.378 | > 100 | 0.333 |
| CCc1c(C)c(C#N)c2nc3ccccc3n2c1NCc1ccco1 | 0.271 | > 100 | 0.333 |
| CN1CCc2c(sc3nc(SCc4ccc(F)cc4)n(-c4ccccc4)c(=O)c23)C1 | 0.498 | > 100 | 0.32 |
| O=C(NCc1nnc(SCC2CCCO2)n1Cc1ccccc1)c1cccc2ccccc12 (configuration not stated) | 1.87 | 8.28 | < 0.0265 |
| CCOC(=O)c1c(CC)nc(-c2ccccc2)nc1C(=O)N1CCC(C)CC1 | > 1.25 | 4.06 | < 0.013 |
| Cc1nc(N2CCCCC2)c2c(C)c(C(=O)N3CCN(c4cccc(Cl)c4)CC3)sc2n1 | > 12.5 | > 100 | 0.319 |
| CCc1ccc(NC(=O)c2ccc(F)c(S(=O)(=O)NC3CCCC(C)C3C)c2)cc1 (configuration not stated) | 1.35 | 66 | 0.216 |
| CC1(CNCc2ccccc2O)C2CC3CC(C2)CC1C3 (configuration not stated) | 0.143 | > 10 | 0.0326 |
| CCOC(=O)c1c(CNCCN(CC)CC)n(C)c2cc(Br)c(OC(C)=O)cc12 | 0.833 | > 100 | 0.309 |
| Cc1ccc(-c2cn3c([n+]2-c2ccccc2)SCC3)cc1 | 0.427 | > 100 | 0.309 |
| CC(C)CCN(CCC(C)C)CC(O)Cn1c2ccc(Br)cc2c2cc(Br)ccc21 (configuration not stated) | 1.49 | > 100 | 0.309 |
| Cc1ccc2cc3c(N)c4c(C)ccc(C)c4nc3nc2c1 | 0.431 | > 100 | 0.308 |
| COc1cc(OC)c(NC(=O)C2c3ccccc3C(=O)N(C)C2c2ccc(OC)c(OC)c2)cc1Cl (configuration not stated) | 0.983 | > 100 | 0.328 |
| COc1cc(C=C(C#N)c2nc3ccccc3[nH]2)ccc1OCc1ccc(C)cc1 | 0.684 | > 100 | 0.328 |
| O=C(Nc1ccc2c(c1)OCO2)c1cc2cc(C3(O)CCN(CC4CCCCC4)CC3)ccc2o1 | 0.442 | > 100 | 0.311 |
| O=C(NC(=S)Nc1ccc(NC(=O)c2cccs2)cc1)c1ccco1 | 0.468 | > 100 | 0.311 |
| COc1ccc(C2C(C(=O)Nc3cccc(OC)c3)c3ccccc3C(=O)N2C2CCCCC2)cc1 (configuration not stated) | 1.11 | > 100 | 0.332 |
| COc1cccc(C(=O)Oc2ccccc2-c2nc3ccccn3c2NC(C)(C)CC(C)(C)C)c1 | 0.27 | > 10 | 0.033 |
| N#Cc1ccc(N2CCCN(C(=S)NC3CCCC3)CC2)nc1 | 0.65 | > 100 | 0.33 |
| CCOC(=O)C1=CN(c2cc(C)ccc2C)C=C(C(=O)OCC)C1c1ccccc1OCC | 0.264 | > 100 | 0.328 |
| COC(=O)C1=C(C)NC2=C(C(=O)CC(c3ccccc3)C2)C1c1ccc(Cl)cc1 (configuration not stated) | 1.22 | > 100 | 0.333 |
| Cc1onc(-c2ccccc2Cl)c1C(=O)Nc1cc(Cl)ccc1Cl | 0.369 | > 100 | 0.33 |

| SMILES | EC50 (Plasmodium falciparum [1]) [µM] | CC50 [2] [µM] | EC50 (Plasmodium falciparum [3]) [µM] |
| --- | --- | --- | --- |
| Cc1ccc(NC(=O)c2ccc(NCCCN3CCC(C)CC3)c([N+](=O)[O-])c2)cc1F | 0.191 | > 100 | 0.33 |
| Cc1nc2ncccn2c1-c1csc(Nc2ccccn2)n1 | 0.189 | > 100 | 0.314 |
| CCCCCSc1scc(-c2ccc(O)c(O)c2)[n+]1C | 0.254 | > 100 | 0.313 |
| COc1cc(OC)c(N(C)C(=O)c2cc3c(s2)-c2ccccc2S(=O)(=O)C3)cc1Cl | 0.113 | > 55.6 | 0.179 |
| CCOc1ccc(C(=O)N2CCN(Cc3ccccc3)CC2)cc1 | > 3.67 | > 100 | 0.322 |
| CCCC(=O)NC(c1cccc([N+](=O)[O-])c1)c1ccc2cccnc2c1O (configuration not stated) | 0.32 | 38.8 | 0.125 |
| CCCn1c(SCCNC(=O)/C=C/c2ccccc2)nc(-c2ccccc2)c1-c1ccccc1 | 0.557 | 9.38 | 0.0297 |
| CC(=O)N(C1=C(N2CCCCCC2)C(=O)c2ccccc2C1=O)C1CCCCC1 | 0.137 | 30.2 | 0.0939 |
| O=C(CSc1nc2cc3c(cc2c(=O)n1Cc1ccco1)OCO3)Nc1cc(C(F)(F)F)ccc1Cl | 0.247 | > 100 | 0.326 |
| COc1cccc(CNC(=O)[C@@H]2CNC[C@H]2c2ccc(C(F)(F)F)cc2)c1 | 0.108 | 23.8 | 0.0775 |
| COc1ccc2c(Cl)c(C(=O)Nc3cc(C)on3)sc2c1Cl | 0.43 | > 100 | 0.316 |
| O=C(NNc1ccccc1F)c1c(F)cccc1Cl | > 1.25 | > 10 | < 0.0316 |
| O=C(COc1ccc(Cl)cc1)Nc1cccc(-c2nc3ncccc3o2)c1 | 1.64 | > 100 | 0.311 |
| O=C(c1c2c(nc3ccccc13)CCC2)N1CCc2ccccc21 | 1.94 | > 11.7 | < 0.0367 |
| COc1ccc(C2=CC(=Cc3cccc(OC)c3OC)C(=O)O2)cc1OC | 4.76 | > 100 | 0.332 |
| O=C(NC1CC1)C1CCN(c2cccc3c2C(=O)N(C2CCCCCCC2)C3=O)CC1 | 0.203 | > 51.8 | 0.169 |
| COC(=O)C1CCN(C(=O)COC(c2ccccc2)c2cccnc2Cl)CC1 (configuration not stated) | > 1.25 | > 2.45 | < 0.00796 |
| Cc1ccc(C[n+]2cc(-c3ccc(F)cc3)n3c2CCC3)cc1 | 0.867 | > 100 | 0.321 |
| COc1ccc(C2=C(c3ccc(OC)cc3)C3(c4ccccc4)C(=O)C2(c2ccccc2)C2C(=O)N(c4ccc(OC)cc4[N+](=O)[O-])C(=O)C23)cc1 (configuration not stated) | 0.353 | > 100 | 0.316 |
| Oc1nc(-c2ccccn2)nc(C(F)(F)F)c1Br | 0.49 | > 8.27 | < 0.0256 |
| CCOC(=O)C(Cc1ccc(O)cc1)NC1=CC(=O)C(=O)c2ccccc21 (configuration not stated) | 0.305 | > 100 | 0.333 |
| O=C1C(=O)N(Cc2ccccc2[N+](=O)[O-])c2ccccc21 | 0.71 | > 100 | 0.326 |
| CCC(C(=O)Oc1ccccc1-c1nc2ccccn2c1NC(C)(C)CC(C)(C)C)c1ccccc1 (configuration not stated) | 0.685 | > 10 | 0.0329 |
| COc1ccc(-n2nc([N+](=O)[O-])c(Nc3ccc([N+](=O)[O-])cc3C)[n+]2[O-])cc1 | 1.3 | > 100 | 0.32 |
| Cc1cc2nc3ccc(N(C)C)cc3[n+](-c3ccccc3)c2cc1N | 0.156 | > 10 | 0.0312 |
| COc1ccc(OC)c(C2CC(=O)C3=C(C2)NC(=O)CC3c2ccc([N+](=O)[O-])cc2)c1 (configuration not stated) | 0.262 | 72.2 | 0.229 |
| O=C1CC(c2ccccc2)CC2=C1C(c1cc(F)ccc1F)Nc1ccccc1N2 (configuration not stated) | 1.02 | > 100 | 0.31 |

Reference: ChEMBL document CHEMBL1156829 (Proc Natl Acad Sci U S A, 2008)
